We go through three compounds from US20030121069A1, “Disruption of the phosphodiesterase 10 gene” (Pfizer Inc., priority 2001, published 2003).

Usually Km stands for the concentration of substrate that gives half-maximal velocity.

The test system of one series is PDE10A+/+ and −/− mice. As to the kind of experiment: Conditioned avoidance responding in PDE10A+/+ and −/− mice. The settings on record: for ED50: Mus musculus. From the text: In the conditioned avoidance paradigm, animals are trained to move from a dark chamber in a shuttle box to a lighted chamber upon presentation of a conditioned stimulus in order to avoid a foot shock.
The conditioned avoidance shuttle chambers consist of individual Plexiglas behavior chambers (Coulbourn Instruments); each chamber divided by a guillotine door into two sides enclosed in sound attenuating cabinets. The Plexiglas chambers are fitted with metal grid floors, which are equipped with scrambled/constant current shockers. Mice are trained to avoid the onset of footshock (0.6 miliampere) by moving to the opposite side of the chamber upon activation of house lights, que lights, and the opening of the guillotine door, all of which occur 5 seconds prior to the foot shock. A computer program is used to record the number of successful avoidance responses (animals cross before onset of shock), as well as the number of escapes (where animals receive the foot shock and then cross), escape failures (where animals receive the foot shock yet still fail to cross), and the latencies to avoid (max 5 sec.) or escape (max.10 sec.) Thirty trials are completed per daily session, and inter-trial intervals are 15 seconds with the guillotine door closed. […] Vehicle treatment is performed one day every week and statistical analysis is done comparing each drug treatment on separate days vs. the vehicle treatment that week. Testing is performed during the lights on period of the light/dark cycle, typically between 8 am and 11 am. The data is analyzed using a paired t-test.

Series [1] deals with PDE10A. As to the kind of experiment: cGMP level in striatal and cortical extracts of PDE10A+/+ and −/− mice after Papaverine (enzyme immunoassay). It is filed as in vivo. Conditions: PDE10A −/− mice, 32 mg/kg intraperitoneally, 15 minutes, vs vehicle. How it is done: (§1) Fifteen minutes afterwards, mice were euthanized by focused-beam microwave irradiation of the head (2 second exposure in a Litton Systems 70/50 microwave, model BN-K2, General Medical Engineering Corp., Peabody, Mass.) to prevent enzymatic degradation of cyclic nucleotides. Striatal and cortical regions were isolated and stored at −80° C. until analysis. Samples were homogenized in 0.5 N HCl and then centrifuged at 20,000×g for 30 minutes. The cGMP concentrations in the supernatants were determined using enzyme immunoassay kits (Cayman Chemical, Ann Arbor, Mich., USA) according to the manufacturer's instructions.

Series [2] concerns the target T1, PDE10A (Mus musculus, UniProt Q8CA95).
T1 construct: from tissue; host or cells: mouse brain in vivo (striatum and cortex); DBA/1LacJ-derived PDE10A +/+ and −/− mice
T1 sequence (Q8CA95 1-779 isoform Q8CA95-2): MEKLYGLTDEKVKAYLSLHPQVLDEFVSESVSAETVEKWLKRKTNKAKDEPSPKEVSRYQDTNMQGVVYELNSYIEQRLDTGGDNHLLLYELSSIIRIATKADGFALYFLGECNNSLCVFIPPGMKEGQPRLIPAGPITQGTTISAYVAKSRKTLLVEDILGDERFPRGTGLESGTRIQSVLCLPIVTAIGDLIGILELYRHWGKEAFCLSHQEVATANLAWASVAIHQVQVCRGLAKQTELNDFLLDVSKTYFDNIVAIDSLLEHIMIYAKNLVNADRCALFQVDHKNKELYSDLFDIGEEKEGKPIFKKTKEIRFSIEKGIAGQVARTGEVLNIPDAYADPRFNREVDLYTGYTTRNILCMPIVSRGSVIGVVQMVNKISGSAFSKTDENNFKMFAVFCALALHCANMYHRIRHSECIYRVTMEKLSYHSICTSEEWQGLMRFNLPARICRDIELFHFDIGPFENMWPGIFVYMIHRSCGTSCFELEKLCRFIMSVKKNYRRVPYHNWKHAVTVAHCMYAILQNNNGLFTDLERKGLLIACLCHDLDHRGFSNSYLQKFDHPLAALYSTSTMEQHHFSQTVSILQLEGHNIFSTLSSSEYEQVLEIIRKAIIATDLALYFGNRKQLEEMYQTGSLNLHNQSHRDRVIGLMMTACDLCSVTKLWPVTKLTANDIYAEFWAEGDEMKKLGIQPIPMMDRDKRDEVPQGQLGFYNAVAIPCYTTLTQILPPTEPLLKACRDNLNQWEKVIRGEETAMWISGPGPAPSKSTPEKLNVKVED
The series is described as above. In kind it is in vivo. Conditions: PDE10A+/+ mice, 32 mg/kg intraperitoneally, 15 minutes, vs vehicle. Here is the method:
as §1

For series [3], the system named is PDE10A. The settings on record: cited from earlier work.
Where [4] appears, read: read-out: ED50, inhibition of conditioned avoidance responding, PDE10A+/+ mice.

Where two headings read alike, the source gives them in different places.

Regarding `O=C(CCCN1CCC(O)(c2ccc(Cl)cc2)CC1)c1ccc(F)cc1` [Haloperidol], the ED50 amounted to 0.29 mg/kg in the series on PDE10A+/+ and −/− mice (read-out: ED50, inhibition of conditioned avoidance responding, PDE10A −/− mice); 0.21 mg/kg in the series with PDE10A+/+ and −/− mice (setting [4]).

With `COc1ccc(Cc2nccc3cc(OC)c(OC)cc23)cc1OC` [Papaverine], the ED50 in the series with PDE10A+/+ and −/− mice (setting [4]) came out at 20.7 mg/kg. Also, in the series with PDE10A+/+ and −/− mice (PDE10A −/− mice, doses up to 56 mg/kg), the “inhibition of conditioned avoidance responding” value was “failed to inhibit”. In the series on PDE10A+/+ and −/− mice (PDE10A+/+ mice, highest dose tested (56 mg/kg)), the “effect on escape failures” value was “no effect”. For the same compound, the “striatal cGMP level” value with PDE10A [1] was “only a slight increase”. In addition, at PDE10A [2], the “cGMP level from striatal extracts” value is reported as “more than two fold elevation” and the “cGMP level in cortical extracts” value is on record as “no effect”.

On to `Nc1nc2c(ncn2[C@@H]2O[C@@H]3COP(=O)(O)O[C@H]3[C@H]2O)c(=O)[nH]1` [cGMP, cyclic guanine 3′5′-monophosphate], for which the “Vmax for cGMP over cAMP” value with PDE10A [3] is given as “approximately 5 fold”. The Michaelis-Menten constant (Km) in the series with PDE10A [3] (read-out: Km (affinity of PDE10A for substrate)) is 3000 nM.
